Test results as given in patent US7041698B2, “Hepatitis C virus inhibitors” (Bristol-Myers Squibb Company, priority 2002, dated 2006).
pEC50: −log10 of the molar value. Like-named read-outs stand apart in the source and are kept apart here.

Test system: HCV replicon in Huh7 cells
Test: HCV replicon cell-based assay
Design: species or system HCV strain 1B
Details: Hepatitis C virus
Summary of the method: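 Huh7 cells carrying a genotype 1b subgenomic replicon (NS3-NS5B, neo) treated 4 days at 37° C with compound (0.5% DMSO final). NS3 protease activity read in lysates with 10 μM FRET peptide (340/490 nm, kinetic), giving EC50. Confirmed by Taqman qRT-PCR of HCV RNA and a Renilla luciferase replicon.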

Compound `C=CC1C[C@]1(NC(=O)[C@@H]1C[C@@H](OC(=O)Nc2ccccc2-c2ccccc2)CN1C(=O)[C@@H](NC(=O)OC(C)(C)C)C(C)(C)C)C(=O)NS(=O)(=O)C1CC1` (stereo partly drawn) [Compound 8, BocNH-P3(t-BuGly)-P2(Hyp(O—CO(NH-biphen-2-yl)))-P1(1R,2S VinylAcca)—CONHSO2Cyclopropane] has a pEC50 (Huh-7, 96 h, HCV replicon, 4 days, read-out: EC50 range) of 6.00 to 7.00 and a pEC50 (Huh-7, HCV replicon, read-out: EC50 value in the replicon assay) of 6.55.
